ChEMBL document CHEMBL4024712, “Synthesis, stability and mechanistic studies of potent anticryptococcal hexapeptides” (Eur J Med Chem, 2017)
Values after ≈ are worked out from the molar mass of the structure shown. Active and inactive are the calls of the source. The calls are words filed in the database; no cut-off is given here. Non-standard residues stand in square brackets, D forms with d. Residues, ends and D or L forms follow the SMILES beside them. Ala(9-anthryl) = N[C@@H](Cc1c2ccccc2cc2ccccc12)C(=O)O; His(τ-Bzl) = N[C@@H](Cc1cn(Cc2ccccc2)cn1)C(=O)O; Bta = N[C@@H](Cc1csc2ccccc12)C(=O)O; Cha = N[C@@H](CC1CCCCC1)C(=O)O; Orn = NCCC[C@H](N)C(=O)O

Tests used:
Candida albicans [1] = experiment: Antifungal activity against Candida albicans by broth microdilution method; format: functional
[2] = Selectivity index ratio of cytotoxic concentration against African green monkey Vero cells to IC50 for Cryptococcus neoformans ATCC 90113; format: toxicity; conditions: read-out: Selectivity Index
Aspergillus fumigatus = experiment: Antifungal activity against Aspergillus fumigatus ATCC 90906 after 68 to 72 hrs by Alamar blue assay; format: functional
[3] = Proteolytic stability assessed as trypsin (unknown origin)-mediated compound hydrolysis at compound to trypsin ratio of 0.5 to […] measured after 24 hrs by RP-HPLC method; format: ADME; conditions: human
Cryptococcus neoformans [4] = experiment: Induction of cell lysis in Cryptococcus neoformans ATCC 90113 biofilm assessed as formation of holes at MIC after 1 hr by osmium tetroxide staining based scanning electron microscopic method; format: functional
Nakaseomyces glabratus [5] = experiment: Antifungal activity against Candida glabrata ATCC 90030 after 18 to 24 hrs by Alamar blue assay; format: functional; conditions: for MIC: Nakaseomyces glabratus, ATCC 90030
[6] = system: Mycobacterium intracellulare; experiment: Anti-bacterial activity against Mycobacterium intracellulare ATCC 23068 after 68 to 72 hrs by Alamar blue assay; format: functional, cell-based
Cryptococcus neoformans [7] = experiment: Antifungal activity against Cryptococcus neoformans ATCC 90113 after 68 to 72 hrs by Alamar blue assay; format: functional
Candida albicans [8] = experiment: Antifungal activity against Candida albicans ATCC 90028 after 18 to 24 hrs by Alamar blue assay; format: functional
Cryptococcus neoformans [9] = experiment: Induction of cell lysis in Cryptococcus neoformans ATCC 90113 biofilm assessed as cytoplasm leakage at MIC after 1 hr by photungstic acid/ammonium molybdate/uranyl acetatebased scanning based transmission electron microscopic method; format: functional
Lipid bilayer [10] = experiment: Binding affinity to EYPC/EYPG small unilamellar vesicles at 0.1 uM by tryptophan fluorescence quenching assay
Lipid bilayer [11] = experiment: Binding affinity to EYPC/cholesterol small unilamellar vesicles at 0.1 uM by tryptophan fluorescence quenching assay; format: ADME
Pseudomonas aeruginosa = experiment: Anti-bacterial activity against Pseudomonas aeruginosa ATCC 27853 by CLSI method; format: functional
Vero = experiment: Cytotoxicity against African green monkey Vero cells up to 10 ug/ml after 48 hrs by neutral red dye based assay; format: cell-based; conditions: chlorocebus sabaeus
Pichia kudriavzevii = experiment: Fungicidal activity against Candida krusei ATCC 6258 after 18 to 24 hrs by Alamar blue assay; format: functional
Candida albicans [12] = experiment: Fungicidal activity against Candida albicans ATCC 90028 after 18 to 24 hrs by Alamar blue assay; format: functional
Nakaseomyces glabratus [13] = experiment: Fungicidal activity against Candida glabrata ATCC 90030 after 18 to 24 hrs by Alamar blue assay; format: functional
Escherichia coli = experiment: Anti-bacterial activity against Escherichia coli ATCC 35218 by CLSI method; format: functional
Staphylococcus aureus [14] = experiment: Anti-bacterial activity against methicillin-resistant Staphylococcus aureus ATCC 33591 by CLSI method; format: functional; conditions: Staphylococcus aureus, ATCC 33591
Staphylococcus aureus [15] = experiment: Anti-bacterial activity against Staphylococcus aureus ATCC 29213 by CLSI method; format: functional; conditions: Staphylococcus aureus, ATCC 29213; for IC50: read-out: IC50
Staphylococcus aureus [16] = experiment: Bactericidal activity against methicillin-resistant Staphylococcus aureus ATCC 33591 by CLSI method; format: functional
Cryptococcus neoformans [17] = experiment: Fungicidal activity against Cryptococcus neoformans ATCC 90113 after 68 to 72 hrs by Alamar blue assay; format: functional

NCCCC[C@H](NC(=O)[C@@H](Cc1ccccc1)NC(=O)[C@H](Cc1ccccc1)NC(=O)[C@@H](Cc1ccccc1)NC(=O)[C@@H](Cc1c[nH]c2ccccc12)NC(=O)[C@@H](N)Cc1c[nH]cn1)C(N)=O (H-H[dW][dF]F[dF]K-NH2)
IC50 (Candida albicans [1]): 6.8 µM

CC[C@H](C)[C@H](NC(=O)[C@H](CC1CCCCC1)NC(=O)[C@H](Cc1c[nH]c2ccccc12)NC(=O)[C@@H](N)CCCN)C(=O)N[C@H](Cc1ccccc1)C(=O)N[C@@H](Cc1cn(Cc2ccccc2)cn1)C(N)=O (H-[Orn]W[Cha]I[dF][His(τ-Bzl)]-NH2)
selectivity ratio [2]: 21 to 25 | IC50 (Aspergillus fumigatus): Not Active | Stability [3]: Stable | Activity (Cryptococcus neoformans [4]): Active | IC50 (Nakaseomyces glabratus [5]): Not Active | IC50 [6]: Not Active | MIC (Cryptococcus neoformans [7]): 0.63 µg/mL (≈ 0.657 µM) | IC50 (Candida albicans [8]): Not Active | Activity (Cryptococcus neoformans [9]): Active | Activity (Lipid bilayer [10]): Active | Activity (Lipid bilayer [11]): Non-Toxic | IC50 (Pseudomonas aeruginosa): Not Active | Activity (Vero): Non-Toxic | MFC (Pichia kudriavzevii): 10 µg/mL (≈ 10.4 µM)

CC[C@H](C)[C@H](NC(=O)[C@H](CC1CCCCC1)NC(=O)[C@@H](Cc1c[nH]c2ccccc12)NC(=O)[C@@H](N)CCCN)C(=O)N[C@@H](Cc1c2ccccc2cc2ccccc12)C(=O)N[C@@H](Cc1cn(Cc2ccccc2)cn1)C(N)=O (H-[Orn][dW][Cha]I[Ala(9-anthryl)][His(τ-Bzl)]-NH2)
IC50 (Aspergillus fumigatus): Not Active | MFC (Candida albicans [12]): 20 µg/mL (≈ 18.9 µM) | MFC (Nakaseomyces glabratus [13]): 20 µg/mL (≈ 18.9 µM) | MIC (Nakaseomyces glabratus [5]): 20 µg/mL (≈ 18.9 µM) | IC50 (Escherichia coli): Not Active | IC50 [6]: Not Active | MIC (Cryptococcus neoformans [7]): 1.25 µg/mL (≈ 1.18 µM) | MIC (Staphylococcus aureus [14]): 10 µg/mL (≈ 9.45 µM) | IC50 (Pseudomonas aeruginosa): Not Active | Activity (Vero): Non-Toxic | MFC (Pichia kudriavzevii): 10 µg/mL (≈ 9.45 µM) | MIC (Staphylococcus aureus [15]): 5 µg/mL (≈ 4.72 µM) | MBC (Staphylococcus aureus [16]): 10 µg/mL (≈ 9.45 µM)

CC[C@H](C)[C@H](NC(=O)[C@H](CC1CCCCC1)NC(=O)[C@@H](Cc1c[nH]c2ccccc12)NC(=O)[C@@H](N)CCCN)C(=O)N[C@@H](Cc1csc2ccccc12)C(=O)N[C@@H](Cc1cn(Cc2ccccc2)cn1)C(N)=O (H-[Orn][dW][Cha]I[Bta][His(τ-Bzl)]-NH2)
IC50 (Aspergillus fumigatus): Not Active | MFC (Nakaseomyces glabratus [13]): 20 µg/mL (≈ 19.7 µM) | MIC (Nakaseomyces glabratus [5]): 20 µg/mL (≈ 19.7 µM) | IC50 (Escherichia coli): Not Active | IC50 [6]: Not Active | MIC (Cryptococcus neoformans [7]): 1.25 µg/mL (≈ 1.23 µM) | IC50 (Candida albicans [8]): Not Active | IC50 (Pseudomonas aeruginosa): Not Active | Activity (Vero): Non-Toxic | MFC (Pichia kudriavzevii): 20 µg/mL (≈ 19.7 µM) | IC50 (Staphylococcus aureus [15]): 20 µg/mL (≈ 19.7 µM)

CC[C@H](C)[C@H](NC(=O)[C@H](CC1CCCCC1)NC(=O)[C@@H](Cc1c[nH]c2ccccc12)NC(=O)[C@@H](N)CCCN)C(=O)N[C@@H](CC1CCCCC1)C(=O)N[C@@H](Cc1cn(Cc2ccccc2)cn1)C(N)=O (H-[Orn][dW][Cha]I[Cha][His(τ-Bzl)]-NH2)
selectivity ratio [2]: 21 to 25 | IC50 (Aspergillus fumigatus): Not Active | MFC (Candida albicans [12]): 20 µg/mL (≈ 20.7 µM) | MIC (Nakaseomyces glabratus [5]): 20 µg/mL (≈ 20.7 µM) | IC50 (Escherichia coli): Not Active | IC50 [6]: Not Active | MIC (Candida albicans [8]; Candida albicans, ATCC 90028): 20 µg/mL (≈ 20.7 µM) | IC50 (Candida albicans [8]; Candida albicans, ATCC 90028, read-out: IC50): 17.4 µg/mL (≈ 18 µM) | Activity (Lipid bilayer [10]): Active | Activity (Lipid bilayer [11]): Non-Toxic | IC50 (Pseudomonas aeruginosa): Not Active | Activity (Vero): Non-Toxic | MFC (Pichia kudriavzevii): 20 µg/mL (≈ 20.7 µM) | IC50 (Staphylococcus aureus [15]): 17.5 µg/mL (≈ 18.1 µM) | MFC (Cryptococcus neoformans [17]): 1.25 µg/mL (≈ 1.3 µM)
